# Laboratory results: patent US20220105058A1, “USE OF 3-O-SULFAMATE-16,16-DIMETHYL-D-HOMOEQUILENIN TO TREAT ONCOLOGICAL DISEASES” (priority 2018, published 2022)
# Several values for one entry are separate records, joined by “and”; a condition that tells them apart may be missing. Equal values may be shown once. Entries after “also recorded” stand apart in the source; their conditions may differ.
# Experiments:
# [1] = body weight and tolerability during the antitumor study; conditions: for average body weight of mice (M): Tamoxifen 4.0 mg/kg i.g. daily; for Body weight: Tamoxifen 4 mg/kg
# Procedure: The study medicament was administered i.g. using a metal atraumatic gavage (with the procedure corresponds to the oral route of administration in clinical settings). The medicament was administered in a single daily dose (20 mg/kg of body weight) and 5-fold daily dose of 100 mg/kg of body weight. Ex tempore solutions of the medicament for administration were prepared in olive oil (refined olive oil supplemented with unrefined extra virgin olive oil available under Global Village “Clasico” trademark, lot L:183351116, expiry date 26 Apr. 2020, BAIEO, Spain). The administered volume was 0.1 ml per 10 g of a mouse body weight (0.2 ml of a ready-to-use formulation for a mouse of 20 g). The medicament administration was started 24 hours after the randomization. The duration of the administration course was 27-28 days.
# This dose corresponds to a human daily dose of 20 mg/kg.
# The evaluation criteria included the clinical observation data, animals body weights, time of death (if applicable), tumor growth over time, pathomorphological examination data (verification of a neoplasm during autopsy, assessment of toxic effects by macroscopic presentation of changes in the internal organs).
# The animals body weights were recorded before the first administration of the medicaments and then twice per week using a verified high-speed electronic laboratory balance Ohaus Scout Pro (USA) with a maximum load of 2000 g and a measurement step of 0.1 g.
# [2] = test system: uterine body without horns; assay: uterine body weight (hormonal effect) on Day 28; assay type: in vivo, FVB mice transgenic for HER-2/neu; conditions: for Uterine body weight: Day 28; for uterotropic activity / hormonal effect: mouse, in vivo
# Procedure: To estimate the hormonal effect of the medicament, the weight of uterine body without horns was measured on Day 28 of the observation period (Table 9).
# [3] = acute oral toxicity, OECD 423 test; conditions: for Lethal effects (dead/total): 14 days observation
# Procedure: LD50 of the medicament was determined in FVB mice transgenic for HER-2/neu using the OECD 423 test (OECD guideline for testing of chemicals. Acute Oral Toxicity-Acute Toxic Class Method).
# 12 female mice were used in the experiment.
# At the first step, 3 mice were given the medicament at a dose of 300 mg/kg. The study medicament was administered intragastrically (i.g.) using a metal atraumatic gavage (the procedure corresponds to the oral administration in clinical settings). […] The dosage form for administration was prepared ex tempore.
# The animals were examined 2 times a day, clinically examined individually after the dose administration during the first 60 minutes, with special attention during the first 4 hours, periodically during the first 24 hours, on Day 2 and weekly for up to 14 days. Each animal was thoroughly examined in the housing cage in the observer's hands. The overall conditions of the animals were recorded, such as peculiarities in their behavior, intensity and nature of motor activity, fur and skin appearance.
# The body weights of the animals were recorded using a verified high-speed electronic laboratory balance Ohaus Scout Pro (USA) with a maximum load of 2000 g and a measurement step of 0.1 g.
# On Day 15, the animals were euthanized and undergone autopsy analysis with the registration of macroscopic changes. The data was collected in a special individual autopsy form.
# All of the experimental animals were subject to pathomorphological examination at the end of the study. The euthanized animals were carefully examined for the external pathological changes. The chest and abdominal cavities were examined along with the macroscopic analysis of internal organs.
# When assessing the acute toxicity the animals were continuously observed for the first 60 minutes, and then examined every hour for 3 hours and further once in 24 hours. On the second day, the observation was carried out twice per day. Further the observations were made once per day. […] The animal was thoroughly examined in the housing cage in the observer's hands. The overall conditions of the animals were recorded, such as peculiarities in their behavior, intensity and nature of motor activity, fur and skin appearance.
# [4] = test system: chronic myelogenous leukemia cells (K562); assay: activity against K562; assay type: cell-based
# [5] = cholesterol and triglycerides in blood serum (summary statement)
# [6] = test system: triple negative breast cancer MDA-MB-231 cell line; assay: cell proliferation in MDA-MB-231; assay type: cell-based
# [7] = test system: lung cancer A549; assay: activity against A549; assay type: cell-based; conditions: Homo sapiens
# [8] = test system: gastric adenocarcinoma SNU638; assay: activity against SNU638; assay type: cell-based; conditions: Homo sapiens, SNU-638
# [9] = test system: estrogen receptors; assay: study of binding to the estrogen receptors; conditions: concentrations of −0.001 and 0.01, 0.1 and 1.0 μmol/ml
# [10] = test system: hepatocellular carcinoma SK-Hep-1 cells; assay: activity against SK-Hep-1 cells; assay type: cell-based; conditions: Homo sapiens, SK-HEP1
smiles,measurement,setting,value
CC/C(=C(\c1ccccc1)c1ccc(OCCN(C)C)cc1)c1ccccc1 [Tamoxifen],average body weight of mice (M),[1]; Day 0,31.0 g
same,average body weight of mice (M),[1]; Day 7,32.0 g
same,average body weight of mice (M),[1]; Day 14,32.9 g
same,average body weight of mice (M),[1]; Day 21,32.8 g
same,average body weight of mice (M),[1]; Day 28,34.2 g
same,Body weight,"[1]; Day 28, All mice",34.2 ± 1.4 g
same,Body weight,"[1]; Day 28, estrus (E-9)",34.2 ± 1.4 g
same,Uterine body weight,"[2]; Tamoxifen 4 mg/kg, All mice",28 ± 1 mg
same,Uterine body weight,"[2]; Tamoxifen 4 mg/kg, estrus (E-9)",28 ± 1 mg
"CC1(C)CC(=O)[C@@]2(C)CCc3c(ccc4cc(OS(N)(=O)=O)ccc34)[C@@H]2C1 [medicament, 3-O-sulfamate-16,16-dimethyl-D-homoequilenin]",signs of intoxication,[3]; 300 mg/kg,None of the animals exhibited visual signs of intoxication
same,Lethal effects (dead/total),[3]; 300 mg/kg i.g.,no animals died and no animals deaths were detected and 0/6
same,average body weight,"[3]; 300 mg/kg, Day 1 (before administration)",28.1 g
same,body weight of individual mice,"[3]; 300 mg/kg, Day 1 (before administration), in g (unit assumed)",29.6 and 27.8 and 28.0 and 30.0 and 27.0 and 26.4
same,average body weight,"[3]; 300 mg/kg, Day 2",28.1 g
same,"average body weight, % from baseline","[3]; 300 mg/kg, Day 2",0%
same,body weight of individual mice,"[3]; 300 mg/kg, Day 2, in g (unit assumed)",29.2 and 27.4 and 27.8 and 30.4 and 27.2 and 26.8
same,average body weight,"[3]; 300 mg/kg, Day 7",29.1 g
same,"average body weight, % from baseline","[3]; 300 mg/kg, Day 7",3%
same,body weight of individual mice,"[3]; 300 mg/kg, Day 7, in g (unit assumed)",29.6 and 28.2 and 29.7 and 31.2 and 28.4 and 27.2
same,average body weight,"[3]; 300 mg/kg, Day 14",29.5 g
same,"average body weight, % from baseline","[3]; 300 mg/kg, Day 14",5%
same,body weight of individual mice,"[3]; 300 mg/kg, Day 14, in g (unit assumed)",30.2 and 29.0 and 30.6 and 31.1 and 28.6 and 27.6
same,clinical signs of intoxication,[3]; 2000 mg/kg,No clinical signs of intoxication were observed
same,Lethal effects (dead/total),[3]; 2000 mg/kg i.g. in 2 steps,0/6
same,average body weight,"[3]; 2000 mg/kg, Day 1 (before administration)",26.2 g
same,body weight of individual mice,"[3]; 2000 mg/kg, Day 1 (before administration), in g (unit assumed)",28.4 and 27.5 and 25.7 and 24.2 and 24.0 and 27.2
same,average body weight,"[3]; 2000 mg/kg, Day 2",25.8 g
same,"average body weight, % from baseline","[3]; 2000 mg/kg, Day 2",−1%
same,decrease in the average body weight from baseline,"[3]; 2000 mg/kg, Day 2",1%
same,body weight of individual mice,"[3]; 2000 mg/kg, Day 2, in g (unit assumed)",28.0 and 26.8 and 25.3 and 24.4 and 23.8 and 26.4
same,average body weight,"[3]; 2000 mg/kg, Day 7",25.7 g
same,"average body weight, % from baseline","[3]; 2000 mg/kg, Day 7",−2%
same,decrease in the average body weight from baseline,"[3]; 2000 mg/kg, Day 7",2%
same,body weight of individual mice,"[3]; 2000 mg/kg, Day 7, in g (unit assumed)",26.8 and 24.9 and 25.0 and 25.9 and 25.4 and 26.3
same,average body weight,"[3]; 2000 mg/kg, Day 14",27 g
same,"average body weight, % from baseline","[3]; 2000 mg/kg, Day 14",3%
same,body weight of individual mice,"[3]; 2000 mg/kg, Day 14",26.9 (2×) and 26.0 and 26.6 and 28.7 and 27.0
same,macroscopic examination of internal organs at autopsy,[3]; Day 15,did not reveal any pathological changes; also recorded: did not reveal any abnormalities
same,hazard class / category,"[3]; mouse, in vivo",5th or non-classified category and 4th hazard class and 5th or unclassified category
same,toxicity,[3]; summary statement,absence of toxicity
same,activity against K562 cells,[4],active
same,effects on the content of triglycerides in blood serum,[5],absence of effects
same,hypocholesterolemic activity,[5],hypocholesterolemic activity
same,inhibition of cell proliferation,[6],83%
same,IC50,[7],29.6 µM
same,IC50,[8],22.8 µM
same,hormone activity,[9],lacks hormone activity
same,IC50,[10],53.4 µM
same,signs of toxic damage to internal organs at autopsy,[1]; end of the experiment,No specific signs of toxic damage to internal organs were found
same,clinical signs of toxicity,"[1]; mouse, in vivo",no clinical signs of toxicity being observed
same,Uterine body weight,"[2]; medicament 20 mg/kg, All mice",27 ± 5 mg
same,Uterine body weight,"[2]; medicament 20 mg/kg, diestrus (D-7)",19 ± 3 mg
same,Uterine body weight,"[2]; medicament 20 mg/kg, estrus (E-3)",45 ± 7 mg
same,Uterine body weight,"[2]; medicament 100 mg/kg, All mice",26 ± 6 mg
same,Uterine body weight,"[2]; medicament 100 mg/kg, diestrus (D-8)",19 ± 4 mg
same,Uterine body weight,"[2]; medicament 100 mg/kg, estrus (E-2)",50 ± 10 mg
same,uterotropic activity / hormonal effect,[2],No significant differences; also recorded: no uterotropic activity
same,uterotropic activity / hormonal effect,[2]; listed as compound,absence of uterotropic activity
